According to patent US10117430B2, “Malononitrile compounds for controlling animal pests” (BASF SE, priority 2012, dated 2018):

What was measured:
Type in all cases: in vivo
[1] = test system: Green Peach Aphid (Myzus persicae); experiment: B.3 Green peach aphid systemic test, artificial diet under membrane; settings: 72 h, concentration of the test solution 2500 mg/L, 3 days
Description: B.3 Green Peach Aphid (Myzus persicae)
For evaluating control of green peach aphid (Myzus persicae) through systemic means the test unit consisted of 96-well-microtiter plates containing liquid artificial diet under an artificial membrane. The compounds were formulated using a solution containing 75% v/v water and 25% v/v DMSO. Different concentrations of formulated compounds were pipetted into the aphid diet, using a custom built pipetter, at two replications. After application, 5-8 adult aphids were placed on the artificial membrane inside the microtiter plate wells. The aphids were then allowed to suck on the treated aphid diet and incubated at about 23±1° C. and about 50±5% relative humidity for 3 days. Aphid mortality and fecundity was then visually assessed.

[2] = test system: Orchid Thrips (Dichromothrips corbetti); experiment: B.4 Orchid thrips floral-immersion test; settings: 96 h, in comparison with untreated controls, after 4 days
Protocol: B.4 Orchid Thrips (Dichromothrips Corbetti)
Dichromothrips corbetti adults used for bioassay are obtained from a colony maintained continuously under laboratory conditions. For testing purposes, the test compound is diluted to a concentration of 300 ppm (wt compound: vol diluent) in a 1:1 mixture of acetone:water (vol:vol), plus 0.01% vol/vol Kinetic® surfactant. Thrips potency of each compound is evaluated by using a floral-immersion technique. Plastic petri dishes are used as test arenas. All petals of individual, intact orchid flowers are dipped into treatment solution and allowed to dry. Treated flowers are placed into individual petri dishes along with 10-15 adult thrips. The petri dishes are then covered with lids. All test arenas are held under continuous light and a temperature of about 28° C. for duration of the assay. After 4 days, the numbers of live thrips are counted on each flower, and along inner walls of each petri dish. The level of thrips mortality is extrapolated from pre-treatment thrips numbers.

[3] = test system: Tobacco Budworm (Heliothis virescens); experiment: B.8 Tobacco budworm test on sprayed cotton plants; settings: 96 h, in comparison with untreated controls, 4 days after treatment
Protocol: B.8 Tobacco Budworm (Heliothis virescens) I
The active compounds were formulated in cyclohexanone as a 10,000 ppm solution supplied in tubes. The tubes were inserted into an automated electrostatic sprayer equipped with an atomizing nozzle and they served as stock solutions for which lower dilutions were made in 50% acetone:50% water (v/v). A nonionic surfactant (Kinetic®) was included in the solution at a volume of 0.01% (v/v). Cotton plants were grown 2 plants to a pot and selected for treatment at the cotyledon stage. Test solutions were sprayed onto the foliage by an automated electrostatic plant sprayer equipped with an atomizing spray nozzle. The plants were dried in the sprayer fume hood and then removed from the sprayer. Each pot was placed into perforated plastic bags with a zip closure. About 10 to 11 budworm larvae were placed into the bag and the bags zipped closed. Test plants were maintained in a growth room at about 25° C. and about 20-40% relative humidity for 4 days, avoiding direct exposure to fluorescent light (24 hour photoperiod) to prevent trapping of heat inside the bags. Mortality and reduced feeding were assessed 4 days after treatment, compared to untreated control plants.

[4] = test system: Boll Weevil (Anthonomus grandis); experiment: B.9 Boll weevil microtiter diet test, egg and larval mortality; settings: 120 h, in comparison with untreated controls, egg and larval mortality after 5 days
Protocol: B.9 Boll Weevil (Anthonomus grandis)
(§1) For evaluating control of boll weevil (Anthonomus grandis) the test unit consisted of 24-well-microtiter plates containing an insect diet and 20-30 A. grandis eggs. The compounds were formulated using a solution containing 75% v/v water and 25% v/v DMSO. Different concentrations of formulated compounds were sprayed onto the insect diet at 20 μl, using a custom built micro atomizer, at two replications. After application, microtiter plates were incubated at about 23±1° C. and about 50±5% relative humidity for 5 days. Egg and larval mortality was then visually assessed.

[5] = test system: Silverleaf Whitefly (Bemisia argentifolii); experiment: B.5 Silverleaf whitefly test on sprayed cotton plants; settings: 72 h, in comparison with untreated controls, 3 days after treatment
Protocol: B.5 Silverleaf Whitefly (Bemisia argentifolii)
The active compounds were formulated in cyclohexanone as a 10,000 ppm solution supplied in 1.3 ml ABgene® tubes. These tubes were inserted into an automated electrostatic sprayer equipped with an atomizing nozzle and they served as stock solutions for which lower dilutions were made in 50% acetone:50% water (v/v). A nonionic surfactant (Kinetic®) was included in the solution at a volume of 0.01% (v/v). Cotton plants at the cotyledon stage (one plant per pot) were sprayed by an automated electrostatic plant sprayer equipped with an atomizing spray nozzle. The plants were dried in the sprayer fume hood and then removed from the sprayer. Each pot was placed into a plastic cup and 10 to 12 whitefly adults (approximately 3-5 days old) were introduced. The insects were collected using an aspirator and 0.6 cm, nontoxic Tygon® tubing (R-3603) connected to a barrier pipette tip. The tip, containing the collected insects, was then gently inserted into the soil containing the treated plant, allowing insects to crawl out of the tip to reach the foliage for feeding. Cups were covered with a reusable screened lid (150-micron mesh polyester screen PeCap from Tetko, Inc.). Test plants were maintained in a growth room at 25° C. and 20-40% relative humidity for 3 days, avoiding direct exposure to fluorescent light (24 hour photoperiod) to prevent trapping of heat inside the cup. Mortality was assessed 3 days after treatment, compared to untreated control plants.

[6] = test system: Cowpea Aphid (Aphis craccivora); experiment: B.1 Cowpea aphid spray test on potted cowpea plants; settings: in comparison with untreated controls, population reduction assessed after 24, 72 and 120 hours
Protocol: B.1 Cowpea Aphid (Aphis craccivora)
The active compounds were formulated in 50:50 (v/v) acetone:water. The test solution was prepared at the day of use. Potted cowpea plants colonized with approximately 100-150 aphids of various stages were sprayed after the pest population has been recorded. Population reduction was assessed after 24, 72, and 120 hours.

[7] = test system: Vetch Aphid (Megoura viciae); experiment: B.7 Vetch aphid test on broad bean leaf disks; settings: foliar, 120 h, in comparison with untreated controls, 5 days
Protocol: B.7 Vetch Aphid (Megoura viciae)
For evaluating control of vetch aphid (Megoura viciae) through contact or systemic means the test unit consisted of 24-well-microtiter plates containing broad bean leaf disks. The compounds were formulated using a solution containing 75% v/v water and 25% v/v DMSO. Different concentrations of formulated compounds were sprayed onto the leaf disks at 2.5 μl, using a custom built micro atomizer, at two replications. After application, the leaf disks were air-dried and 5-8 adult aphids placed on the leaf disks inside the microtiter plate wells. The aphids were then allowed to suck on the treated leaf disks and incubated at about 23±1° C. and about 50±5% relative humidity for 5 days. Aphid mortality and fecundity was then visually assessed.

[8] = test system: Rice brown plant hopper (Nilaparvata lugens); experiment: B.11 Rice brown plant hopper test on sprayed rice seedlings; settings: in comparison with untreated controls, after 72 hours
Protocol: B.11 Rice brown plant hopper (Nilaparvata lugens)
Rice seedlings were cleaned and washed 24 hours before spraying. The active compounds were formulated in 50:50 acetone:water (vol:vol) and 0.1% vol/vol surfactant (EL 620) was added. Potted rice seedlings were sprayed with 5 ml test solution, air dried, placed in cages and inoculated with 10 adults. Treated rice plants were kept at about 28-29° C. and relative humidity of about 50-60%. Percent mortality was recorded after 72 hours.

[9] = test system: Yellow Fever Mosquito (Aedes aegypti); experiment: whole plant or invertebrate; settings: 48 h, in comparison with untreated controls, larval mortality after 2 days
Protocol: B.12 Yellow Fever Mosquito (Aedes aegypti)
For evaluating control of yellow fever mosquito (Aedes aegypti) the test unit consisted of 96-well-microtiter plates containing 200 μl of tap water per well and 5-15 freshly hatched A. aegypti larvae. The compounds or mixtures were formulated using a solution containing 75% water and 25% DMSO. Different concentrations of formulated compounds or mixtures were sprayed onto the insect diet at 2.5 μl, using a custom built micro atomizer, at two replications. After application, microtiter plates were incubated at 28±1° C., 80±5% relative humidity for 2 days. Larval mortality was then visually assessed.

[10] = test system: Green Soldier Stink Bug (Nezara viridula); experiment: B.15 Green soldier stink bug test on sprayed soybean pods; settings: 120 h, in comparison with untreated controls, after 5 days
Protocol: B.15 Green Soldier Stink Bug (Nezara viridula)
The active compound is dissolved at the desired concentration in a mixture of 1:1 (vol:vol) distilled water:aceteone. Surfactant (Kinetic HV) is added at a rate of 0.01% (vol/vol). The test solution is prepared at the day of use. Soybean pods were placed in microwavable plastic cups lined with moist filter paper and inoculated with ten 3rd instar N. viridula. Using a hand atomizer, an approximately 2 ml solution is sprayed into each cup. Treated cups were kept at about 28-29° C. and relative humidity of about 50-60%. Percent mortality was recorded after 5 days.

[11] = test system: Mediterranean Fruitfly (Ceratitis capitata); experiment: B.2 Mediterranean fruitfly microtiter diet test, egg and larval mortality; settings: 120 h, in comparison with untreated controls, egg and larval mortality after 5 days
Protocol: B.2 Mediterranean Fruitfly (Ceratitis capitata)
as §1, with “Mediterranean fruitfly (Ceratitis capitata)” for “boll weevil (Anthonomus grandis)”, “microtiter” for “24-well-microtiter”, “50-80 C. capitata” for “20-30 A. grandis”, “5” for “20”, “28±1°” for “23±1°”, “80±5%” for “50±5%”

[12] = test system: Red Spider Mite (Tetranychus kanzawai); experiment: B.10 Red spider mite test on sprayed cowpea beans; settings: in comparison with untreated controls, 72 hours after treatment
Protocol: B.10 Red Spider Mite (Tetranychus kanzawai)
The active compound is dissolved at the desired concentration in a mixture of 1:1 (vol:vol) distilled water:acetone. Add surfactant (Alkamuls® EL 620) at the rate of 0.1% (vol/vol). The test solution is prepared at the day of use. Potted cowpea beans of 7-10 days of age were cleaned with tap water and sprayed with 5 ml of the test solution using air driven hand atomizer. The treated plants were allowed to air dry and afterwards inculated with 20 or more mites by clipping a cassava leaf section with known mite population. Treated plants were placed inside a holding room at about 25-27° C. and about 50-60% relative humidity. Percent mortality was assessed 72 hours after treatment.

[13] = test system: Southern Armyworm (Spodoptera eridania); experiment: B.6 Southern armyworm test on sprayed lima bean plants; settings: 96 h, 500 ppm, in comparison with untreated controls, 4 days after treatment
Protocol: B.6 Southern Armyworm (Spodoptera eridania)
The active compounds were formulated in cyclohexanone as a 10,000 ppm solution supplied in 1.3 ml ABgene® tubes. These tubes were inserted into an automated electrostatic sprayer equipped with an atomizing nozzle and they served as stock solutions for which lower dilutions were made in 50% acetone:50% water (v/v). A nonionic surfactant (Kinetic®) was included in the solution at a volume of 0.01% (v/v). Lima bean plants (variety Sieva) were grown 2 plants to a pot and selected for treatment at the 1st true leaf stage. Test solutions were sprayed onto the foliage by an automated electrostatic plant sprayer equipped with an atomizing spray nozzle. The plants were dried in the sprayer fume hood and then removed from the sprayer. Each pot was placed into perforated plastic bags with a zip closure. Ten to 11 armyworm larvae were placed into the bag and the bags zipped closed. Test plants were maintained in a growth room at 25° C. and 20-40% relative humidity for 4 days, avoiding direct exposure to fluorescent light (24 hour photoperiod) to prevent trapping of heat inside the bags. Mortality and reduced feeding were assessed 4 days after treatment, compared to untreated control plants.

N#CC(C#N)(Cc1ccc(F)nc1F)c1cc(F)cc(F)c1 [II-52]
≥ 75%: mortality at 2500 µg/mL [1] | mortality at 500 ppm [2] | mortality at 2500 ppm [3] | mortality at 2500 ppm [4]

N#CC(C#N)(Cc1cccnc1)c1ccccc1 [II-31]
≥ 75%: mortality at 500 ppm [5] | mortality at 2500 ppm [3] | mortality at 2500 ppm [4]

N#CC(C#N)(Cc1ccc(F)cn1)c1ccccc1 [II-11]
≥ 75%: mortality at 2500 µg/mL [1] | mortality at 2500 ppm [3]

N#CC(C#N)(Cc1ccc(C(F)(F)F)nc1)c1ccccc1 [II-3]
≥ 75%: mortality at 500 ppm [6] | mortality at 500 ppm [2] | mortality at 2500 ppm [7] | mortality at 2500 ppm [3] | mortality at 2500 ppm [4] | mortality at 300 ppm [8] | mortality at 2500 ppm [9] | mortality at 500 ppm [10]

N#CC(C#N)(Cc1ccc(F)nc1F)c1ccccc1 [II-50]
≥ 75%: mortality at 500 ppm [2] | mortality at 2500 ppm [3] | mortality at 2500 ppm [9]

N#CC(C#N)(Cc1cnc(C(F)(F)F)cn1)c1ccccc1 [II-26]
≥ 75%: mortality at 500 ppm [6] | mortality at 2500 ppm [11] | mortality at 500 ppm [2] | mortality at 500 ppm [5] | mortality at 2500 ppm [7] | mortality at 2500 ppm [3] | mortality at 2500 ppm [4] | mortality at 500 ppm [12] | mortality at 2500 ppm [9]

N#CC(C#N)(Cc1ncc(C(F)(F)F)cn1)c1ccccc1 [II-16]
≥ 75%: mortality at 500 ppm [6] | mortality at 2500 µg/mL [1] | mortality at 500 ppm [2] | mortality at 500 ppm [5] | mortality at 500 ppm [13] | mortality at 2500 ppm [7] | mortality at 2500 ppm [4] | mortality at 500 ppm [12] | mortality at 300 ppm [8] | mortality at 2500 ppm [9]
